Laboratory results from PubChem BioAssay (NCI).
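Interpolation was linear, between the two tested concentrations surrounding the appropriate level; five concentrations were tested over 48 hours in 96-well plates. At the GI50, growth is halved. TGI: concentration producing complete growth inhibition.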

Columns and labels:
Assay in all cases: DTP human tumour cell line panel, 48 h
SF-539 CNS = test system: SF-539 CNS
DU-145 prostate = test system: DU-145 prostate
UACC-257 melanoma = test system: UACC-257 melanoma
EKVX NSCLC = test system: EKVX NSCLC
A549 NSCLC = test system: A549 NSCLC
OVCAR-3 ovarian = test system: OVCAR-3 ovarian
UACC-62 melanoma = test system: UACC-62 melanoma
SK-MEL-5 melanoma = test system: SK-MEL-5 melanoma
ACHN renal = test system: ACHN renal
HL-60(TB) leukemia = test system: HL-60(TB) leukemia

Compound | GI50 (SF-539 CNS) [µM] | TGI (SF-539 CNS) [µM] | GI50 (DU-145 prostate) [µM] | TGI (DU-145 prostate) [µM] | GI50 (UACC-257 melanoma) [µM] | TGI (UACC-257 melanoma) [µM] | GI50 (EKVX NSCLC) [µM] | TGI (EKVX NSCLC) [µM] | GI50 (A549 NSCLC) [µM] | TGI (A549 NSCLC) [µM] | GI50 (OVCAR-3 ovarian) [µM] | TGI (OVCAR-3 ovarian) [µM] | GI50 (UACC-62 melanoma) [µM] | TGI (UACC-62 melanoma) [µM] | GI50 (SK-MEL-5 melanoma) [µM] | TGI (SK-MEL-5 melanoma) [µM] | GI50 (ACHN renal) [µM] | TGI (ACHN renal) [µM] | GI50 (HL-60(TB) leukemia) [µM] | TGI (HL-60(TB) leukemia) [µM]
CC(NCCC(=O)N(CCC(=O)N(CCC(=O)N(CCC(=O)N(CCC(=O)N(CCC(=O)N(CCC(=O)N(CCC(=O)N(CCC(=O)N(CCC(=O)O)[C@H](C)c1ccccc1)[C@H](C)c1ccccc1)[C@H](C)c1ccccc1)[C@H](C)c1ccccc1)[C@H](C)c1ccccc1)[C@H](C)c1ccccc1)[C@H](C)c1ccccc1)[C@H](C)c1ccccc1)[C@H](C)c1ccccc1)c1ccccc1 (some centres not stated) | 1.49 | 3.67 | 2.34 | 12.3 | 1.76 | 4.15 | 3.73 | > 75 | 3.56 | > 75 | 2.04 | 19.1 | 1.32 | 2.96 | 1.16 | 2.36 | 5.05 | > 43.9 | 2.44 | 13.9
CCC[CH2][Sn]([CH2]CCC)([CH2]CCC)[O]C(=O)c1ccc(Cl)cc1Cl | 0.172 | 0.327 | 0.128 | 0.257 | 0.155 | 0.313 | 0.099 | 0.273 | 0.164 | 0.328 | 0.13 | 0.259 | 0.161 | 0.368 | 0.143 | 0.276 | 0.171 | 0.34 | 0.187 | 0.494
O=C1C2C(c3ccccc3)NC(c3ccccc3)C1C(c1ccccc1)NC2c1ccccc1 (configuration not stated) |  | > 100 |  | > 100 |  | > 100 |  | > 100 |  | > 100 |  | > 100 |  | > 100 |  | > 100 |  | > 100 |  | > 100
C=C1C(=O)O[C@H]2[C@H](OC(C)=O)[C@@H](C)CCC/C(C)=C/CC[C@@]3(C)O[C@@H]3C[C@@H]12 |  | 13.9 |  | 6.87 |  | 11.7 |  | 8.79 |  | 34.6 |  | 16.2 |  | 9.43 |  | 15.5 |  | 3.4 |  | 2.38
O=C(Nc1ccc2[nH]c(=S)sc2c1)Nc1ccccc1F | 29.6 | > 100 | 59.4 | > 100 | 73.5 | > 100 | 22.3 | > 100 | 51.2 | > 100 | 34.8 | > 100 | 18.5 | > 100 | 17.3 | 84.1 | 37.4 | > 100 | 23.9 | 93.5
O=P(CCCCP(=O)(c1ccccc1)c1ccccc1)(c1ccccc1)c1ccccc1.[Cl][Sn]([Cl])([c]1ccccc1)[c]1ccccc1 | 1.43 | 3.64 | 2 | 4.52 | 1.68 | 3.31 | 2.71 | 7.92 | 3.59 | > 23.6 | 1.61 | 3.99 | 1.59 | 3.3 | 1.9 | 4.07 | 1.86 | 3.53 | 2.04 | 6.61
CN(C)CC1C(=O)O[C@H]2[C@H]1CC/C(COC(=O)c1cc3ccccc3[nH]1)=C\CC[C@@]1(C)O[C@@H]21 (some centres not stated) | 2.2 | 5.86 | 2.01 | 6.17 | 1.47 | 3.24 | 3.16 | 12.5 | 4.62 | 14.3 | 0.672 | 1.76 | 1.72 | 3.89 | 1.84 | 3.57 | 0.923 | 2.48 | 0.663 | 3.53
COc1ccc(/C=C(\C#N)n2nnc3ccccc32)cc1 | 0.252 | 0.869 | 0.323 |  | 4.92 | > 100 | 0.431 | > 100 | 0.235 | > 100 | 0.046 |  | 0.0893 | 19.7 | 0.282 | 2.89 | 0.434 | 17.2 | 0.126 | 
CN(C)CCCN1c2ccccc2C(C)(C)c2ccccc21 |  | 28.4 |  | 31.2 |  | 23.9 |  | 32.6 |  | 30.7 |  | 28.9 |  | 25.8 |  | 26.2 |  | 28.6 |  | 33.6
Cc1cc(NCc2cc(Nc3ccnc4cc(Cl)ccc34)ccc2F)nc(N2CCN(C)CC2)n1 | 1.79 | 3.37 | 2.63 | 11.4 | 1.87 | 3.68 | 2.91 | 12.6 | 3.07 | 10.9 | 1.76 | 3.83 | 1.91 | 3.81 | 1.69 | 3.07 | 2.16 | 5.38 | 1.68 | 3.67
CC(C)COCC(CN(Cc1ccccc1)c1ccccc1)N1CCCC1 (configuration not stated) | 6.46 | 19.4 | 3.76 | 13.6 | 3.28 | 15.3 | 2.85 | 15.1 | 3.48 | 13.5 | 3.15 | 12.1 | 2.87 | 12.5 | 1.65 | 3.01 | 4.99 | 17 | 3.09 | 7.56
CCN1Cc2c(ccc(F)c2C#N)O[C@@H](C)CNC(=O)c2c(N)nn3ccc1nc23 | 3.46 | 15.8 | 2.09 | 15.7 | 2.63 | 16.7 | 5.03 | 31.4 | 2.85 | 24 | 3.37 | 18.1 | 0.632 | 3.65 | 3.46 | 15.2 | 0.676 | 6.86 | 4.37 | 40
CN1C(=O)C(CC(=O)O)NC1=S (configuration not stated) |  | > 100 |  | > 100 |  | > 100 |  | > 100 |  | > 100 |  | > 100 |  | > 100 |  | > 100 |  | > 100 |  | > 100
C=C1C(=O)O[C@H]2[C@H]1CCC(/C=N/c1ncc(Br)cc1N)=C\CC[C@@]1(C)O[C@@H]21 | 2.06 | 6.82 | 1.25 | 3.22 | 1.8 | 4.45 | 2.36 | 11.8 | 10.9 | 25.3 | 1.05 | 2.29 | 1.87 | 4.22 | 1.55 | 3.01 | 1.41 | 4.9 | 0.494 | 3.29
